We go through eleven compounds from PMC4667731 (Journal of medicinal chemistry, 2015).

“Also recorded” adds a separate entry of the source.

What is called pKa is the negative logarithm of the acid dissociation constant. Usually MIC stands for the lowest concentration that inhibits growth of the organism. Read a high MIC as a less susceptible organism. For orientation: Papp A→B means the apparent permeability from the apical to the basolateral side of a cell layer. Read a low Papp A→B as slow passage. In general, Cmax refers to the maximum level reached in the sampled fluid or tissue.

Data set [1] is described as follows: Estimated pKa of the acyl-sulfonyl linker. It counts as physicochemical.
The test system of a further data set is M. tuberculosis H37Rv. The data set is described as follows: M. tuberculosis H37Rv MIC assay under iron-deficient conditions. Type of data set: cell-based. The note with it: Mycobacterium tuberculosis, pH 6.6.
Data set [2] is described as follows: Stability under acidic and alkaline conditions. Type of data set: physicochemical. As to conditions: 24 h at 37 °C.
The next data set has as its system TB infection. The note with it: dosed intraperitoneally; cited from earlier work.
A further data set is described as follows: in vitro. As to conditions: human, Caco-2, […].
The nature of data set [3]: Pharmacokinetics in Sprague-Dawley rats. The note with it: rat; for detection in serum samples after oral dose of prodrug: p.o. 25 mg/kg.
The nature of data set [4]: Serum stability studies of prodrugs. It counts as in vitro ADME. As to conditions: Figure S8.
Another data set is described as follows: Aqueous solubility. Type of data set: physicochemical.
For data set [5], the system named is UDP-gluguronosyl transferase (UDPGT). The data set is described as follows: Glucuronidation study, human liver microsomes. The note with it: UDPGA.
For data set [6] the test system is unchanged. The data set can be described thus: Glucuronidation study, rat liver microsomes. The note with it: UDPGA. For orientation: Liver microsomes are vesicles of endoplasmic reticulum, rich in cytochrome P450 enzymes.

On to `CCN(CC)CC.Nc1ncnc2c1ncn2[C@@H]1O[C@H](COS(=O)(=O)NC(=O)c2ccccc2O)[C@@H](O)[C@H]1O` [Compound 1, 5′-O-[N-(salicyl)sulfamoyl]adenosine], for which, in data set [1], the pKa is approximately 3. In the data set with M. tuberculosis H37Rv, this compound showed an MIC of 0.2 µg/mL. Besides, the degradation entry in data set [2] (acidic (pH 1)) and in [2] (alkaline (pH 12)) was “less than 5%” in each case. Further, the “efficacy in acute murine TB infection model” value with TB infection is “effective”. This compound also displayed a Papp A→B in “in vitro” of 1.2 ×10⁻⁶ cm/s.
In the data set with M. tuberculosis H37Rv, `CCN(CC)CC.Nc1ncnc2c1ncn2[C@@H]1O[C@H](CNS(=O)(=O)NC(=O)c2ccccc2O)C[C@H]1F` [Compound 10, 2′, 3′, 5′-Trideoxy-5′-N-[N-(2-hydroxybenzoyl)sulfamoyl]amino-2′-fluoroadenosine triethylammonium salt] showed an MIC of 0.43 µg/mL.
Still for that read-out and setting: then `CCN(CC)CC.Nc1ncnc2c1ncn2[C@@H]1O[C@H](CNS(=O)(=O)NC(=O)c2ccccc2O)[C@@H](O)[C@H]1F` [Compound 8, 5′-N-[N-(2-Hydroxybenzoyl)sulfamoyl]amino-2′, 5′-dideoxy-2′-fluoroadenosine triethylammonium salt], with 0.11 µg/mL.
As to “5′-O-[N-(2-Acetoxybenzoyl)sulfamoyl]-2′, 3′-O-di-acetyladenosine [Compound 3]”, the “detection in serum samples after oral dose of prodrug” value in data set [3] (25 mg/kg) is “neither of the parent compounds was detected; also recorded: only a negligible amount of 1 could be detected”. In data set [4], the “serum stability (acetate cleavage)” value is listed as “rapidly cleaved”.
Turning to `CCN(CC)CC.O=C(NS(=O)(=O)NC[C@H]1O[C@@H](n2cnc3c(NC4CC4)nc(-c4ccccc4)nc32)[C@H](O)[C@@H]1O)c1ccccc1O` [Compound 7, N^6-Cyclopropyl-5′-deoxy-5′-N-[N-(2-hydroxybenzoyl)sulfamoyl]amino-2-phenyladenosine triethylammonium salt], the MIC against M. tuberculosis H37Rv was determined as 4.27 µg/mL. In addition, in the data set “Aqueous solubility”, the “aqueous solubility” value is “poor aqueous solubility”.
In the data set on M. tuberculosis H37Rv, `CCN(CC)CC.O=C(NS(=O)(=O)NC[C@H]1O[C@@H](n2cnc3c(NC4CC4)ncnc32)[C@H](O)[C@@H]1O)c1ccccc1O` [Compound 6, N^6-Cyclopropyl-5′-deoxy-5′-N-[N-(2-hydroxybenzoyl)sulfamoyl]aminoadenosine triethylammonium salt] returned a minimal inhibitory concentration (MIC) of 0.06 µg/mL.
Take `CCN(CC)CC.Nc1ncnc2c1ncn2[C@@H]1O[C@H](CNS(=O)(=O)NC(=O)c2ccccc2O)[C@@H](O)[C@H]1O` [Compound 4, 5′-N-[N-(2-Hydroxybenzoyl)sulfamoyl]amino-5′ -deoxyadenosine triethylammonium salt]: the pKa in [1] is approximately 5. The compound also showed an MIC against M. tuberculosis H37Rv of 0.11 µg/mL. Further, the Cmax in data set [3] (female, Sprague-Dawley, in vivo, po, 25 mg/kg) is 1400 nM.
`CCN(CC)CC.Nc1nc(-c2ccccc2)nc2c1ncn2[C@@H]1O[C@H](CNS(=O)(=O)NC(=O)c2ccccc2O)[C@@H](O)[C@H]1F` [Compound 9, 2′, 5′-Dideoxy-2′-fluoro-5′-N-[N-(2-hydroxybenzoyl)sulfamoyl]amino-2-phenyladenosine triethylammonium salt] displayed an MIC with M. tuberculosis H37Rv of 1 µg/mL.
As for `COc1c(C)c2c(c(O)c1C/C=C(\C)CCC(=O)O)C(=O)OC2` [MPA, Mycophenolic Acid], the “glucuronidated at 60 min” value is on record as 85% in [5] and 30% in data set [6].
“2′, 3′ -O-di-Acetyl-5′ -O-[N-(2-hydroxybenzoyl)sulfamoyl]adenosine [Compound 2]”: the “detection in serum samples after oral dose of prodrug” value in data set [3] is given as “neither of the parent compounds was detected”. Besides, the “serum stability (acetate cleavage)” value in [4] was “slowly hydrolyzed”.
In the case of `CCN(CC)CC.Nc1ccc(C(=O)NS(=O)(=O)NC[C@H]2O[C@@H](n3cnc4c(N)ncnc43)[C@H](O)[C@@H]2O)c(O)c1` [Compound 5, 5′-N-[N-(4-Amino-2-hydroxybenzoyl)sulfamoyl]amino-5′-deoxyadenosine], the pKa in data set [1] is approximately 6. Further, the MIC against M. tuberculosis H37Rv came out at 1.81 µg/mL.
